Results on 6 compounds are retold here after US6143910A, “Methods for preparation and use of 1α, 24(S) -dihydroxy vitamin D2” (priority 1998, dated 2000).

Like-named read-outs stand apart in the source and are kept apart here.

The test system of data set [1] is 1,25-(OH)2 D3 receptor site. The settings on record: Ishizuka et al., Steroids 1981, 1982; cited from earlier work.
The conditions of data set [2]: human, in vivo; cited from earlier work.
Data set [3] is described as follows: Blood metabolite levels in osteoporotic women administered 1α-OH-D2. The data set is classed as in vivo, human. The conditions noted are these: one day after a single 2 μg dose of 1α-OH-D2. As to the method:
An increase in the production of 1α,24(S)-(OH)2 D2 relative to 1α,25-(OH)2 D2 has also been observed by the present inventors in human females who received 1α-OH-D2 as part of an investigation of that drug for the treatment of osteoporosis. Following either a single dose of 2 μg of 1α-OH-D2 or daily doses of 8 μg/day for one week, blood was collected and analyzed for the metabolites 1α,24(S)-(OH)2 D2 and 1α,25-(OH)2 D2. Lipid was extracted from the blood, and the metabolites were purified by HPLC using standard methods and quantified with the radioreceptor assay produced by Incstar (Stillwater, Minn.). One day after a single 2 μg dose, the level of 1α,24(S)-(OH)2 D2 was undetectable with the 1α,25-(OH)2 D2 level being approximately 11 pg/ml. In contrast, one day following the last dose of 8 μg, the level of 1α,24(S)-(OH)2 D2 averaged 9 pg/ml with the 1α,25-(OH)2 D2 level averaging 30 pg/ml.

The format of data set [4] is in vivo, rat. As to the method: Vitamin D2 or 24-OH-D2 was administered (either oral or intraperitoneal supplementation) to vitamin D-deficient rats. Lipid extracts of the plasma were prepared and the metabolites purified by the method of Horst et al. (Horst, R. L., Koszewski, N. J. and Reinhardt, T. A., Biochem., 29:578-82 (1990)) described below for synthesyzing standard biological 1α,24-(OH)2 D2.
Standard biological 1α,24-(OH)2 D2 was synthesized in vitro from 24-OH-D2 by incubating 10 μg of 24-OH-D2 in flask containing 5 ml of 20% kidney homogenates made from vitamin D-deficient chicks. The product of this reaction was isolated by HPLC and identified by mass spectrometry.

In the case of `C=C1/C(=C\C=C2/CCC[C@]3(C)[C@@H]([C@H](C)CC[C@@H](O)C(C)C)CC[C@@H]23)C[C@@H](O)C[C@@H]1O` [1α,24(R)-(OH)2 D3, 1α,24(R)-dihydroxyvitamin D3], the “Binding of the 1,25-(OH)2 D3 receptor site relative to 1,25-(OH)2 D3” value in data set [1] is reported as “more tightly than does 1,25-(OH)2 D3 itself”.
Consider `C=C1/C(=C\C=C2/CCC[C@]3(C)[C@@H]([C@H](C)CCCC(C)C)CC[C@@H]23)C[C@@H](O)C[C@@H]1O` [1α-(OH)D3, 1α-hydroxy vitamin D3], for which, in data set [2], the “Safety of dosage levels of 2.0 μg/day or greater” value is on record as “not safely obtained”.
Turning to `C=C1/C(=C\C=C2/CCC[C@]3(C)[C@@H]([C@H](C)/C=C/[C@H](C)C(C)C)CC[C@@H]23)C[C@@H](O)C[C@@H]1O` [1α-OH-D2, 1α-hydroxy vitamin D2], in data set [3], the “Blood level of metabolite 1α,24(S)-(OH)2 D2” value was “undetectable”.
Regarding `C=C1CC[C@H](O)C/C1=C/C=C1\CCC[C@]2(C)[C@@H]([C@H](C)/C=C/C(C)(O)C(C)C)CC[C@@H]12` (stereo partly drawn) [24-OH-D2, 24-hydroxyvitamin D2], in data set [4] (rat, in vivo), the “1α,24-(OH)2 D2 metabolite in plasma lipid extracts” value is “co-migrated on HPLC with the standard 1α,24-(OH)2 D2”.
Consider `C=C1CC[C@H](O)C/C1=C/C=C1\CCC[C@]2(C)[C@@H]([C@H](C)/C=C/[C@H](C)C(C)C)CC[C@@H]12` [vitamin D2], for which the “1α,24-(OH)2 D2 metabolite in plasma lipid extracts” value in data set [4] (vitamin D-deficient rats, oral or intraperitoneal, HPLC) is given as “co-migrated on HPLC with the standard 1α,24-(OH)2 D2”.
On to `C=C1CC[C@H](O)C/C1=C/C=C1\CCC[C@]2(C)[C@@H]([C@H](C)CCCC(C)C)CC[C@@H]12` [vitamin D3], for which the 24-OH-D3 in plasma result in data set [4] (comparable vitamin D-deficient rats) is “no detectable 24-OH-D3”.
